The source of these data is patent US20080145433A1 (GILEAD COLORADO, INC., priority 2006, published 2008).

In data set [1] the target is T1, ETA (Homo sapiens, UniProt P25101).
T1 sequence (P25101 21-427): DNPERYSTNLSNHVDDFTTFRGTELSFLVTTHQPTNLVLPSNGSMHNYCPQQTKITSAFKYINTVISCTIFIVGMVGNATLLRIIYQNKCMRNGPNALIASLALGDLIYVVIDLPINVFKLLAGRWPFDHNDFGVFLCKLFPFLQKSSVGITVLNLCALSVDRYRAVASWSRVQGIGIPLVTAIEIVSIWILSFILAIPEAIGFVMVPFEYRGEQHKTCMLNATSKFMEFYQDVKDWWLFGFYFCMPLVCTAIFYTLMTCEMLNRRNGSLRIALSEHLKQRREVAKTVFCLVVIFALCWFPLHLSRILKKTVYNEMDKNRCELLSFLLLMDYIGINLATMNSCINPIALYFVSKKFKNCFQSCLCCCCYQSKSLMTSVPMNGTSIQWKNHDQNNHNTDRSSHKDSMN
Description: ETA receptor affinity reported by Riechers et al (1996). The data set is classed as binding. The settings on record: calculated from Riechers et al (1996) data.

For data set [2], the target named is T1, ETA. The settings on record: Riechers et al (1996); read-out: affinity for ETA (KiA); cited from earlier work.
Data set [3] deals with T2, ETB (Homo sapiens, UniProt P24530).
T2 sequence (P24530 27-442): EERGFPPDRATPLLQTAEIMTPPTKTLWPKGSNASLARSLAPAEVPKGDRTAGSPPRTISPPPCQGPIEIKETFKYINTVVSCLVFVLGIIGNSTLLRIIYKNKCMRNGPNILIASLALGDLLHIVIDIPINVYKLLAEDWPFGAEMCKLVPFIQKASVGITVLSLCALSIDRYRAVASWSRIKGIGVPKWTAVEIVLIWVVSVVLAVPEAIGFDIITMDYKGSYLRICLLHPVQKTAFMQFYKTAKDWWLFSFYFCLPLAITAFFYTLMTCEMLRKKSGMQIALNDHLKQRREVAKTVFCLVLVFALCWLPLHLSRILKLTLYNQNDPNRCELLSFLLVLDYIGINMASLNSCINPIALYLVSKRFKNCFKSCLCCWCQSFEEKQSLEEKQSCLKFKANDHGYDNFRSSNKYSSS
The settings on record: Riechers et al (1996); read-out: affinity for ETB (KiB); cited from earlier work.

A short description of data set [4]: PK of darusentan tablets, single oral dose, congestive heart failure patients (Example 3). The settings on record: CHF patients, single oral doses 10-300 mg. Type of data set: in vivo, human. An excerpt: This was a multi-center, prospective, uncontrolled clinical trial. […] At least 12 patients received each dose, in addition to their normal medication for CHF.
Arithmetic means and standard deviations of Cmax, Tmax and AUC, based on individual values of these parameters calculated by standard PK methods, are presented in Table 3. As this was a single dose study, Cmin was not determined.

In data set [5] the target is T1, ETA. The settings on record: Lip (2001); cited from earlier work.
The conditions of data set [6]: published values, Boss et al. (2001); cited from earlier work.
Data set [7] deals with T1, ETA. Description: 125[I]-endothelin-1 receptor binding cold ligand competition curves in human myocardial membranes (ETA). The settings on record: mean of 8 assays. Also on record: human myocardial membranes prepared from failing and non-failing left ventricles; from tissue; host or cells: human left ventricular myocardium (failing and non-failing), membranes.
For data set [8], the target named is T2, ETB. The data set can be described thus: 125[I]-endothelin-1 receptor binding cold ligand competition curves in human myocardial membranes (ETB). Also on record: human myocardial membranes prepared from failing and non-failing left ventricles; from tissue; host or cells: human left ventricular myocardium (failing and non-failing), membranes. The settings on record: 10 μM Gpp(NH)p, 4-hour incubation, steady-state binding, mean of 8 assays.

Where two headings read alike, the source gives them in different places.

Take `COc1cc(OC)nc(OC(C(=O)O)C(OC)(c2ccccc2)c2ccccc2)n1` (racemic) [racemate, 2-(4,6-dimethoxypyrimidin-2-yloxy)-3-methoxy-3,3-diphenylpropionic acid]: the “ETA/ETB selectivity (KiB/KiA)” value in data set [1] is “about 62”. Further, the figures for the Ki in data set [2] and in data set [3] were 6 nM and 371 nM, respectively.
`COc1cc(OC)nc(O[C@@H](C(=O)O)C(OC)(c2ccccc2)c2ccccc2)n1` [less potent enantiomer]: the Ki in data set [2] is 150 nM.
With `COc1cc(OC)nc(O[C@H](C(=O)O)C(OC)(c2ccccc2)c2ccccc2)n1` [darusentan, (+)-(S)-2-(4,6-dimethoxypyrimidin-2-yloxy)-3-methoxy-3,3-diphenylpropionic acid], the “Pharmacokinetics: dose dependence of Cmax and AUC” value in data set [4] was “appeared to be linear”. The Ki is 3 nM in data set [2]; 0.178 ± 0.055 nM in data set [7] (10 μM Gpp(NH)p, 4-hour incubation, steady-state binding); 216 ± 85 nM in data set [8]. Also, the ETA/ETB selectivity entry in data set [5] is given as “about 160”. The T1/2 in data set [6] is 10 to 12 h. For the same compound, in data set [7], the “ETA selectivity (fold)” value came to 1181 ± 148 fold.
